Laboratory results: PubChem BioAssay (NCI)
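Cells were grown in 96-well plates and exposed to each compound for 48 hours at five concentrations; endpoints were interpolated linearly between bracketing concentrations, or set to the highest concentration if not reached. TGI: concentration producing complete growth inhibition.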

How the values were obtained:
Assay in all cases: growth of human tumour cells (NCI), 48 h
[1] = system: RPMI-8226 leukemia
[2] = system: A498 renal
[3] = system: HS 578T breast
[4] = system: 786-0 renal
[5] = system: HOP-62 NSCLC
[6] = system: NCI-H522 lung
[7] = system: MDA-MB-435
[8] = system: OVCAR-3 ovarian
[9] = system: CCRF-CEM leukemia
[10] = system: HCT-15 colon
[11] = system: PC-3 prostate
[12] = system: ACHN renal
[13] = system: SF-539 CNS
[14] = system: OVCAR-8 ovarian
[15] = system: UACC-62 melanoma
[16] = system: UACC-257 melanoma
[17] = system: SF-268 CNS
[18] = system: SNB-19 CNS
[19] = system: SN12C renal
[20] = system: SK-MEL-5 melanoma
[21] = system: TK-10 renal
[22] = system: U251 CNS
[23] = system: SR leukemia
[24] = system: DU-145 prostate
[25] = system: HOP-92 NSCLC
[26] = system: T-47D breast
[27] = system: COLO 205 colon
[28] = system: CAKI-1 renal
[29] = system: MDA-MB-231 breast
[30] = system: OVCAR-4 ovarian
[31] = system: MDA-N
[32] = system: MOLT-4 leukemia
[33] = system: M14 melanoma
[34] = system: UO-31 renal
[35] = system: SNB-75 CNS
[36] = system: IGROV1 ovarian
[37] = system: K-562 leukemia
[38] = system: SF-295 CNS
[39] = system: MCF7 breast
[40] = system: BT-549 breast
[41] = system: SW-620 colon
[42] = system: LOX IMVI melanoma
[43] = system: NCI-H460 lung
[44] = system: NCI/ADR-RES ovarian
[45] = system: NCI-H226 lung
[46] = system: OVCAR-5 ovarian
[47] = system: MALME-3M melanoma
[48] = system: RXF 393 renal
[49] = system: HL-60(TB) leukemia
[50] = system: EKVX NSCLC
[51] = system: SK-MEL-2 melanoma
[52] = system: HCT-116 colon
[53] = system: HT29 colon
[54] = system: SK-MEL-28 melanoma
[55] = system: A549 NSCLC
[56] = system: HCC-2998 colon
[57] = system: KM12 colon
[58] = system: NCI-H23 lung
[59] = system: SK-OV-3 ovarian
[60] = system: LXFL 529 NSCLC
[61] = system: KM20L2 colon
[62] = system: DMS 114 small cell lung
[63] = system: SNB-78 CNS
[64] = system: M19-MEL melanoma

In the case of `O=c1[nH]c(=O)n(C/C=C/CBr)nc1Br`, the TGI [1] was 23.3 µM, the TGI [2] was 26.3 µM and the TGI [3] was 53.8 µM. For the same molecule, the TGI [4] was 26.3 µM, the TGI [5] was 37.9 µM and the TGI [6] was 14.5 µM. It also gave a TGI [7] of 27.2 µM, a TGI [8] of 23.9 µM and a TGI [9] of 30.7 µM. For the same molecule, the TGI [10] was 27.9 µM, the TGI [11] was 24.6 µM and the TGI [12] was 25.8 µM. It also gave a TGI [13] of 27.7 µM, a TGI [14] of 29.9 µM and a TGI [15] of 27.3 µM. The TGI [16] was 24.9 µM, the TGI [17] was 28.5 µM and the TGI [18] was 28.1 µM. It also gave a TGI [19] of 28.1 µM, a TGI [20] of 25.9 µM and a TGI [21] of 31.7 µM. The TGI [22] was 21.8 µM, the TGI [23] was 14.1 µM and the TGI [24] was > 100 µM. The TGI [25] was 26.5 µM, the TGI [26] was 28.2 µM and the TGI [27] was 27.8 µM. The TGI [28] was 24.9 µM, the TGI [29] was 14.1 µM and the TGI [30] was 22.9 µM. For the same molecule, the TGI [31] was 27.5 µM, the TGI [32] was 43.3 µM and the TGI [33] was 27.6 µM. For the same molecule, the TGI [34] was 32.5 µM, the TGI [35] was 24.3 µM and the TGI [36] was 29.5 µM. The TGI [37] was 47.7 µM, the TGI [38] was 31.1 µM and the TGI [39] was 22.2 µM. The TGI [40] was 27.7 µM, the TGI [41] was 29.5 µM and the TGI [42] was 5.78 µM. It also gave a TGI [43] of 37 µM, a TGI [44] of 45.6 µM and a TGI [45] of 27.8 µM. For the same molecule, the TGI [46] was 31.1 µM, the TGI [47] was 27.5 µM and the TGI [48] was 25.4 µM. The TGI [49] was 24.5 µM, the TGI [50] was 28.8 µM and the TGI [51] was 26 µM. It also gave a TGI [52] of 26.3 µM, a TGI [53] of 26.1 µM and a TGI [54] of 28.2 µM. The TGI [55] was 30.8 µM, the TGI [56] was 28.3 µM and the TGI [57] was 28.8 µM. The TGI [58] was 25.5 µM.
With `COc1ccc2c(CCNS(=O)(=O)c3ccccc3)c(C(C)=O)[nH]c2c1` the TGI [1] was > 100 µM, the TGI [2] was > 100 µM and the TGI [3] was > 100 µM. The TGI [4] was > 100 µM, the TGI [5] was > 100 µM and the TGI [6] was > 100 µM. For the same molecule, the TGI [7] was > 75.6 µM, the TGI [8] was > 100 µM and the TGI [9] was > 100 µM. The TGI [10] was > 100 µM, the TGI [11] was > 100 µM and the TGI [59] was > 100 µM. The TGI [12] was > 100 µM, the TGI [13] was > 100 µM and the TGI [14] was > 100 µM. For the same molecule, the TGI [15] was > 100 µM, the TGI [16] was > 57.1 µM and the TGI [17] was > 100 µM. For the same molecule, the TGI [18] was > 100 µM, the TGI [19] was > 100 µM and the TGI [20] was > 68.1 µM. The TGI [21] was > 100 µM, the TGI [22] was > 100 µM and the TGI [23] was > 100 µM. The TGI [24] was > 100 µM, the TGI [25] was > 100 µM and the TGI [26] was > 86.8 µM. The TGI [27] was > 100 µM, the TGI [28] was > 100 µM and the TGI [29] was > 100 µM. The TGI [30] was > 100 µM, the TGI [31] was > 100 µM and the TGI [32] was > 100 µM. For the same molecule, the TGI [33] was > 100 µM, the TGI [34] was > 100 µM and the TGI [35] was > 100 µM. For the same molecule, the TGI [36] was > 100 µM, the TGI [37] was > 100 µM and the TGI [38] was > 100 µM. The TGI [39] was > 100 µM, the TGI [40] was > 100 µM and the TGI [41] was > 100 µM. For the same molecule, the TGI [42] was > 100 µM, the TGI [43] was > 100 µM and the TGI [44] was > 100 µM. The TGI [45] was > 100 µM, the TGI [46] was > 100 µM and the TGI [47] was > 100 µM. The TGI [48] was > 100 µM, the TGI [49] was > 100 µM and the TGI [50] was > 100 µM. For the same molecule, the TGI [51] was > 100 µM, the TGI [52] was > 100 µM and the TGI [53] was > 100 µM. For the same molecule, the TGI [54] was > 100 µM, the TGI [55] was > 100 µM and the TGI [56] was > 100 µM. For the same molecule, the TGI [57] was > 100 µM and the TGI [58] was > 100 µM.
`CCO[C@@H]1OC(=O)[C@@](C)(C(C)=O)[C@@H]1C` was tested, and the TGI [1] was 48.6 µM, the TGI [2] was > 100 µM and the TGI [5] was 56.6 µM. For the same molecule, the TGI [6] was > 100 µM, the TGI [8] was 31.4 µM and the TGI [9] was 49.5 µM. For the same molecule, the TGI [59] was > 100 µM, the TGI [12] was > 100 µM and the TGI [60] was 47.6 µM. The TGI [15] was 53.3 µM, the TGI [61] was > 100 µM and the TGI [16] was 78.9 µM. For the same molecule, the TGI [17] was 44.1 µM, the TGI [18] was 68.3 µM and the TGI [22] was 56.7 µM. For the same molecule, the TGI [23] was > 100 µM, the TGI [25] was 94.9 µM and the TGI [27] was > 100 µM. For the same molecule, the TGI [30] was > 100 µM, the TGI [32] was 61.1 µM and the TGI [33] was 70.4 µM. The TGI [34] was > 100 µM, the TGI [35] was 25.7 µM and the TGI [36] was > 100 µM. The TGI [37] was > 100 µM, the TGI [38] was 66 µM and the TGI [62] was 68.9 µM. For the same molecule, the TGI [43] was > 100 µM, the TGI [46] was > 100 µM and the TGI [63] was 84.9 µM. For the same molecule, the TGI [64] was 40.9 µM, the TGI [47] was 77.5 µM and the TGI [48] was 70.2 µM. For the same molecule, the TGI [49] was 78.6 µM, the TGI [51] was 52 µM and the TGI [53] was 34.6 µM. For the same molecule, the TGI [54] was 29.9 µM, the TGI [57] was > 100 µM and the TGI [58] was 28.7 µM.
